Results from patent US10751338B2, “Sustained-release voriconazole-containing thermogel and uses thereof” (priority 2017, dated 2020).
Values after ≈ are worked out from the molar mass of the structure shown.

Columns and labels:
[1] = In vitro release of voriconazole from the thermogel (Example 5); type: physicochemical
Method: Each formulation was tested in triplicate.
The injection volume was 100 μl.

[2] = Ex-vivo trans-corneal fluorescein permeation, Franz diffusion cell (Example 4); type: in vitro ADME, horse; conditions: 10 μM sodium fluorescein, 6 hours, 37° C.
Method: Fresh equine corneas used in the experiment were obtained from horses enrolled in terminal laboratories performed at the AULATH. Corneoscleral buttons (16 mm diameter) were dissected using standard eye bank technique within 2 hours of enucleation. Fluorescent permeation experiments using a Franz diffusion cell method were performed to examine the integrity of the epithelial barrier function during the times studied (2 and 6 hours). Corneas were mounted horizontally between the donor and the receiving compartments of the diffusion cells (exposure window 0.64 cm^2), which were maintained at 37° C. (see FIGS. 8A and 8B).
Samples (1 ml PBS pH 7.4) were removed from the receiving compartment hourly and replaced with fresh receiving fluid. The fluorescent intensities of the receiving solution samples were analyzed using a microplate spectrofluorometer (Fluostar, BMG Labtech, Ortenberg, Germany) and a 96 well plate (Costar, Corning, N.Y.). A standard solution of NaF was prepared in PBS with a concentration range of 30 μg/ml to 0.12 μg/ml. Fluorescence was determined in a spectrofluorometer at excitation and emission wavelengths of 490 nm and 512 nm, respectively. All groups were tested in triplicate. The results were expressed as mean value±standard error of the mean (SEM).

[3] = system: common equine fungal pathogens; conditions: target MIC; cited from earlier work

With `C[C@@H](c1ncncc1F)[C@](O)(Cn1cncn1)c1ccc(F)cc1F` [Group 6, voriconazole] the “Day by which voriconazole was undetectable” value ([1]; PBS samples) was no more than 6 days, the UC24 ([1]; mean, PBS, 34.5° C.) was 4133 µg·days/mL and the UC28 ([1]; mean, PBS, 34.5° C.) was 4135 µg·days/mL. For the same molecule, the K release ([1]; mean, first-order release) was 0.7558 day⁻¹.
For `O=C1OC2(c3ccc(O)cc3Oc3cc(O)ccc32)c2ccccc21` [fluorescein, sodium fluorescein], the “Fluorescein concentration in receiving compartment versus negative control” value [2] was “not significantly different”.
In the case of `C[C@@H](c1ncncc1F)[C@](O)(Cn1cncn1)c1ccc(F)cc1F` [voriconazole], the MIC [3] is given as 0.5 mg/L (≈ 1.43 µM).
